Values joined by “and” are separate entries in the source; they are usually repeats but may differ in a detail not shown here. Equal values may be shown once. Where a name gives a salt, the structure may show the parent alone. Read-outs that look alike come from different tables or passages of the source.
Columns and labels:
MCL-1 = MCL-1 (Homo sapiens, UniProt Q07820); assay: Protein-protein interaction assay MCL-1/Noxa BH3 peptide (MCL-1 assay), TR-FRET; type: binding; settings: MBP-MCL-1 / Noxa BH3-derived peptide, median
Outline: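 Steady-state competition, MCL-1/Noxa BH3, TR-FRET readout; 1 nM MBP-MCL-1, 11-point dose series 0.1 nM–20 μM; overnight 4 °C equilibration; 4-parameter IC50.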

SUDHL5 [1] = assay: Induction of caspase-3/7 activity (Caspase-Glo 3/7), SUDHL5; type: cell-based; settings: Homo sapiens, SU-DHL-5, 3 h, caspase-3/7 induction, SUDHL5 cells, 3 h treatment; median
Outline: (§1)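 A 3 h, 37 °C compound incubation precedes the Caspase-Glo 3/7 read. After subtracting medium-only signal, EC50s are fitted against the reference compound's maximal caspase induction.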

SUDHL10 [2] = assay: Induction of caspase-3/7 activity (Caspase-Glo 3/7), SUDHL10; type: cell-based; settings: Homo sapiens, SU-DHL10, 3 h, caspase-3/7 induction, SUDHL10 cells, 3 h treatment; median
Outline: as §1

SUDHL5 [3] = assay: Anti-proliferative effect (CellTiter-Glo, 72 h), SUDHL5; type: cell-based; settings: Homo sapiens, SU-DHL-5, 72 h, SUDHL5 cells, antiproliferation, 72 h incubation, median, read-out: Antiproli SUDHL5 [M] (median)
Outline: (§2)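 Endpoint: CellTiter-Glo luminescence, 10 min after reagent addition. Treatment ran 72 h at 37 °C, humidified. Growth was referenced to a separately plated day 0 plate.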

SUDHL10 [4] = assay: Anti-proliferative effect (CellTiter-Glo, 72 h), SUDHL10; type: cell-based; settings: Homo sapiens, SU-DHL10, 72 h, SUDHL10 cells, antiproliferation, 72 h incubation, median, read-out: Antiproli SUDHL10 [M] (median)
Outline: as §2

OPM2 = assay: Anti-proliferative effect (CellTiter-Glo, 72 h), OPM2; type: cell-based; settings: Homo sapiens, OPM-2, 72 h, OPM2 cells, median, read-out: IC50 antiproliferation assay OPM2 [M] (median)
Outline: as §2

A2780 = assay: Anti-proliferative effect (CellTiter-Glo, 72 h), A2780; type: cell-based; settings: A2780 cells, median, read-out: IC50 antiproliferation assay A2780 [M] (median)
Outline: as §2

SUDHL5 [5] = assay: Induction of cytotoxicity (CellTiter-Glo, 5 h), SUDHL5; settings: Homo sapiens, SU-DHL-5, 5 h, read-out: Cytotox SUDHL5 [M] (median), SUDHL5 cells, cytotoxicity induction, CellTiter-Glo, 5 h incubation, median
SUDHL10 [6] = assay: Induction of cytotoxicity (CellTiter-Glo, 5 h), SUDHL10
[7] = Homo sapiens, SU-DHL10, 5 h, read-out: Cytotox SUDHL10 [M] (median), SUDHL10 cells, cytotoxicity induction, CellTiter-Glo, 5 h incubation, median

Sequence of MCL-1 (Q07820 whole entry): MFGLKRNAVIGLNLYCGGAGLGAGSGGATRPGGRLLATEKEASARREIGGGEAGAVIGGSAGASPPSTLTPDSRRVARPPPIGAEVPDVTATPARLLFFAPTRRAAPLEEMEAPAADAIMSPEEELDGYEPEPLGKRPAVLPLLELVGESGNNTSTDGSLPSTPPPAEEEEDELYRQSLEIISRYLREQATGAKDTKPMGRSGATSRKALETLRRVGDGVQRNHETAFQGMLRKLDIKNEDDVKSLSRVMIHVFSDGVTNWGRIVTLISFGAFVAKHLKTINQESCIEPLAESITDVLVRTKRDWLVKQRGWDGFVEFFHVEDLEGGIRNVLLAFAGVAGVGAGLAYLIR

In the case of `CN(C)S(=O)(=O)N1CCN(c2ccc(OCc3nn(C)c4c3-c3cccc5c(CCCOc6cccc7ccccc67)c(C(=O)O)n(c35)CCCCCC4)cc2)CC1` (racemic) [Example 1-39, (rac)-3-({4-[4-(dimethysulfamoyl)piperazin-1-yl]phenoxy}methyl)-1-methyl-7-[3-(naphthalen-1-yloxy)propyl]-10,11,12,13,14,15-hexahydro-1H-pyrazolo[4′,3′:4,5]azacycloundecino[3,2,1-hi]indole-8-carboxylic Acid], the IC50 (MCL-1) is reported as 0.00251 µM, the EC50 (SUDHL5 [1]) is reported as 3.47 µM and the EC50 (SUDHL10 [2]) is reported as 2.45 µM. The IC50 (SUDHL5 [3]) was 5.77e-06 M, the IC50 (SUDHL10 [4]) was 2.14e-05 M and the IC50 (OPM2) was > 3.3e-05 M. The IC50 (A2780; Homo sapiens, A2780, 72 h) was > 3.3e-05 M, the IC50 (SUDHL5 [5]) was 2.05e-06 M and the IC50 (SUDHL10 [6]; [7]) was 1.82e-06 M.
`CN1CCCn2c(C(=O)O)c(CCCOc3cccc4ccccc34)c3cccc(c32)-c2c(CN3CCOCC3)nn(C)c2C1` (racemic) [Example 1-42, (rac)-7,9-dimethyl-11-(morpholin-4-ylmethyl)-1-[3-(naphthalen-1-yloxy)propyl]-4,5,6,7,8,9-hexahydropyrazolo[3′,4′:7,8][1,5]diazecino[9,10,1-hi]indole-2-carboxylic Acid] was tested, and the IC50 (MCL-1) was 0.0202 µM, the EC50 (SUDHL5 [1]) was 10.9 µM and the EC50 (SUDHL10 [2]) was 14.9 µM. For the same compound, the IC50 (SUDHL5 [3]) was 7.08e-06 M, the IC50 (SUDHL10 [4]) was 1.64e-05 M and the IC50 (OPM2) was 3.29e-05 M. The IC50 (A2780; Homo sapiens, A2780, 72 h) was > 3.3e-05 M, the IC50 (SUDHL5 [5]) was 1.19e-05 M and the IC50 (SUDHL10 [6]; [7]) was > 3.3e-05 M.
`Cn1nc(COc2ccc(C3(O)CCOCC3)cc2)c2c1COCC=CCn1c(C(=O)O)c(CCCOc3cccc4ccccc34)c3cccc-2c31` (racemic) [Example 1-60, (rac)-(E/Z)-3-{[4-(4-hydroxytetrahydro-2H-pyran-4-yl)phenoxy]methyl}-1-methyl-7-[3-(naphthalen-1-yloxy)propyl]-1,10,13,15-tetrahydropyrazolo[4′,3′ 9,10][1,6]oxazacycloundecino[8,7,6-hi]indole-8-carboxylic Acid] gave an IC50 (MCL-1) of 0.0171 µM, an EC50 (SUDHL5 [1]) of 19.5 µM and an EC50 (SUDHL10 [2]) of 25.9 µM. The IC50 (SUDHL5 [3]) was 1.3e-05 M, the IC50 (SUDHL10 [4]) was 9.02e-06 M and the IC50 (OPM2) was > 3.3e-05 M. For the same compound, the IC50 (A2780; Homo sapiens, A2780, 72 h) was 2.88e-05 M, the IC50 (SUDHL5 [5]) was 2.1e-05 M and the IC50 (SUDHL10 [6]; [7]) was 3.27e-05 M.
`COC1(c2ccc(OCc3nn(C)c4c3-c3cccc5c(CCCOc6cccc7ccccc67)c(C(=O)O)n(c35)CC=CCOC4)cc2)CCOCC1` (racemic) [Example 1-64, (rac)-(E/Z)-3-{[4-(4-methoxytetrahydro-2H-pyran-4-yl)phenoxy]methyl}-1-methyl-7-[3-(naphthalen-1-yloxy)propyl]-1,10,13,15-tetrahydropyrazolo[4′,3′:9,10][1,6]oxazacycloundecino[8,7,6-hi]indole-8-carboxylic Acid] showed an IC50 (MCL-1) of 0.0988 µM, an EC50 (SUDHL5 [1]) of 19.9 µM and an EC50 (SUDHL10 [2]) of 29.4 µM. The IC50 (SUDHL5 [3]) was 1.2e-05 M, the IC50 (SUDHL10 [4]) was 7.4e-06 M and the IC50 (OPM2) was 2.15e-05 M. For the same compound, the IC50 (A2780; Homo sapiens, A2780, 72 h) was 1.21e-05 M, the IC50 (SUDHL5 [5]) was 2.65e-05 M and the IC50 (SUDHL10 [6]; [7]) was > 3.3e-05 M. For the same compound, the IC50 (SUDHL10 [6]; read-out: Cytotox SUDHL10 [M] (median), SUDHL10 cells, cytotoxicity induction, CellTiter-Glo, 5 h incubation, median) was 3.12e-05 M and 2.47e-05 M.
For `CC(C)OCc1nn(C)c2c1-c1cccc3c(CCCOc4cccc5c4CCCC5)c(C(=O)O)n(c13)CCCCOC2` (racemic) [Example 1-69, (rac)-1-methyl-3-[(propan-2-yloxy)methyl]-7-[3-(5,6,7,8-tetrahydronaphthalen-1-yloxy)propyl]-1,10,11,12,13,15-hexahydropyrazolo[4′,3′:9,10][1,6]oxazacycloundecino[8,7,6-hi]indole-8-carboxylic Acid], the IC50 (MCL-1) was 0.0118 µM, the EC50 (SUDHL5 [1]) was > 33 µM and the EC50 (SUDHL10 [2]) was > 33 µM. The IC50 (SUDHL5 [3]) was > 3.3e-05 M, the IC50 (SUDHL10 [4]) was > 3.3e-05 M and the IC50 (OPM2) was > 3.3e-05 M. For the same compound, the IC50 (A2780; Homo sapiens, A2780, 72 h) was > 3.3e-05 M, the IC50 (SUDHL5 [5]) was 2.71e-05 M and the IC50 (SUDHL10 [6]; [7]) was > 3.3e-05 M.
`CC(C)OCc1nn(C)c2c1-c1cccc3c(CCCOc4cccc5ccccc45)c(C(=O)O)n(c13)CCCCN(C)C2` (racemic) [Example 1-73, (rac)-1,14-dimethyl-7-[3-(naphthalen-1-yloxy)propyl]-3-[(propan-2-yloxy)methyl]-10,11,12,13,14,15-hexahydro-1H-pyrazolo[3′,4′:8,9][1,6]diazacycloundecino[10,11,1-hi]indole-8-carboxylic Acid] gave an IC50 (MCL-1) of 0.00713 µM, an EC50 (SUDHL5 [1]) of 6.83 µM and an EC50 (SUDHL10 [2]) of 11.9 µM. It also gave an IC50 (SUDHL5 [3]) of 3.68e-06 M, an IC50 (SUDHL10 [4]) of 9.04e-06 M and an IC50 (OPM2) of 1.17e-05 M. It also gave an IC50 (A2780; Homo sapiens, A2780, 72 h) of 1.82e-05 M, an IC50 (SUDHL5 [5]) of 7e-06 M and an IC50 (SUDHL10 [6]; [7]) of 1.53e-05 M.
For `CN1CCCn2c(C(=O)O)c(CCCOc3cccc4ccccc34)c3cccc(c32)-c2cnn(C)c2C1` (racemic) [Example 1-96, (rac)-7,9-dimethyl-1-[3-(naphthalen-1-yloxy)propyl]-4,5,6,7,8,9-hexahydropyrazolo[3′,4′:7,8][1,5]diazecino[9,10,1-hi]indole-2-carboxylic Acid], the IC50 (MCL-1) was 0.0173 µM, the EC50 (SUDHL5 [1]) was 23.9 µM and the EC50 (SUDHL10 [2]) was > 33 µM. For the same compound, the IC50 (SUDHL5 [3]) was > 3.3e-05 M, the IC50 (SUDHL10 [4]) was 1.44e-05 M and the IC50 (OPM2) was > 3.3e-05 M. For the same compound, the IC50 (A2780; Homo sapiens, A2780, 72 h) was 2.05e-05 M, the IC50 (SUDHL5 [5]) was 1.84e-05 M and the IC50 (SUDHL10 [6]; [7]) was 2.95e-05 M.
Compound `Cn1nc(COc2ccc(N3CCN(CCC(C)(C)O)CC3)cc2)c2c1COCCCCn1c(C(=O)O)c(CCCOc3cccc4ccccc34)c3cccc-2c31` (racemic) [Example 1-121, (rac)-3-({4-[4-(3-hydroxy-3-methylbutyl)piperazin-1-yl]phenoxy}methyl)-1-methyl-7-[3-(naphthalen-1-yloxy)propyl]-1,10,11,12,13,15-hexahydropyrazolo[4′,3′:9,10][1,6]oxazacycloundecino[8,7,6-hi]indole-8-carboxylic Acid Ammonium Salt] has an IC50 (MCL-1) of 0.00436 µM, an EC50 (SUDHL5 [1]) of 2.66 µM and an EC50 (SUDHL10 [2]) of 8.04 µM. It also gave an IC50 (SUDHL5 [3]) of 5.79e-06 M, an IC50 (SUDHL10 [4]) of 5.07e-06 M and an IC50 (OPM2) of 8.33e-06 M. For the same compound, the IC50 (A2780; Homo sapiens, A2780, 72 h) was 9.61e-06 M, the IC50 (SUDHL5 [5]) was 3.07e-06 M and the IC50 (SUDHL10 [6]; [7]) was 6.21e-06 M.
With `Cc1cc(OCCCc2c(C(=O)O)n3c4c(cccc24)-c2c(C)nn(C)c2COCCCC3)cc(C)c1Cl` (racemic) [Example 009, (rac)-7-[3-(4-chloro-3,5-dimethylphenoxy)propyl]-1,3-dimethyl-1,10,11,12,13,15-hexahydropyrazolo[4′,3′:9,10][1,6]oxazacycloundecino[8,7,6-hi]indole-8-carboxylic Acid] the IC50 (MCL-1) was 0.00632 µM, the EC50 (SUDHL5 [1]) was 9.89 µM and the EC50 (SUDHL10 [2]) was 17.8 µM. It also gave an IC50 (SUDHL5 [3]) of 3.62e-06 M, an IC50 (SUDHL10 [4]) of 8.05e-06 M and an IC50 (OPM2) of 2.1e-05 M. For the same compound, the IC50 (A2780; Homo sapiens, A2780, 72 h) was 2.25e-05 M, the IC50 (SUDHL5 [5]) was 1.11e-05 M and the IC50 (SUDHL10 [6]; [7]) was 2.04e-05 M.
Compound `Cc1nn(C)c2c1-c1cccc3c(CCCOc4cccc5cc(F)ccc45)c(C(=O)O)n(c13)CCCCOC2` (racemic) [Example 018, (rac)-7-{3-[(6-fluoronaphthalen-1-yl)oxy]propyl}-1,3-dimethyl-1,10,11,12,13,15-hexahydropyrazolo[4′,3′:9,10][1,6]oxazacycloundecino[8,7,6-hi]indole-8-carboxylic Acid] has an IC50 (MCL-1) of 0.00453 µM, an EC50 (SUDHL5 [1]) of 4.43 µM and an EC50 (SUDHL10 [2]) of 9.64 µM. It also gave an IC50 (SUDHL5 [3]) of 2.32e-06 M, an IC50 (SUDHL10 [4]) of 7.88e-06 M and an IC50 (OPM2) of 9.67e-06 M. For the same compound, the IC50 (A2780; Homo sapiens, A2780, 72 h) was > 3.3e-05 M, the IC50 (SUDHL5 [5]) was 3.77e-06 M and the IC50 (SUDHL10 [6]; [7]) was 9.04e-06 M.
With `Cc1nn(C)c2c1-c1cccc3c(CCCOc4ccc(F)c5ccccc45)c(C(=O)O)n(c13)CCCCOC2` (racemic) [Example 021, (rac)-7-{3-[(4-fluoronaphthalen-1-yl)oxy]propyl}-1,3-dimethyl-1,10,11,12,13,15-hexahydropyrazolo[4′,3′:9,10][1,6]oxazacycloundecino[8,7,6-hi]indole-8-carboxylic Acid] the IC50 (MCL-1) was 0.011 µM, the EC50 (SUDHL5 [1]) was 13.4 µM and the EC50 (SUDHL10 [2]) was > 33 µM. The IC50 (SUDHL5 [3]) was 2.4e-05 M, the IC50 (SUDHL10 [4]) was 5.25e-06 M and the IC50 (OPM2) was > 3.3e-05 M. For the same compound, the IC50 (A2780) was 2.52e-05 M, the IC50 (A2780; Homo sapiens, A2780, 72 h) was > 3.3e-05 M and the IC50 (SUDHL5 [5]) was 1.82e-05 M. The IC50 (SUDHL10 [6]; [7]) was > 3.3e-05 M.
